Experimental data published in patent publication US20200138854A1, “Method of Detecting and Quantifying Bile Acid from Saliva” (Ironwood Pharmaceuticals, Inc., priority 2017, published 2020).
Values joined by “and” are separate entries in the source; they are usually repeats but may differ in a detail not shown here. Identical values can stand only once.

Assays:
[1] = Frozen (−20° C.) short-term stability in cholestyramine-treated human saliva; conditions: for % Bias QC-LLOQ / Mean concentration QC-LLOQ / Concentration QC-LLOQ / % Bias QC-Mid / Mean concentration QC-Mid / Concentration QC-Mid / % Bias QC-High / Mean concentration QC-High / Concentration QC-High: cholestyramine-treated human saliva; for Concentration QC-LLOQ / Concentration QC-Mid / Concentration QC-High: single determinations
Protocol: Quality control samples for the evaluation of accuracy and precision and for run acceptance were prepared on the day of sample extraction. QC samples prepared in cholestyramine-treated saliva are to be prepared in small volumes for analysis. Stability for these QC samples would be limited to short-term storage (i.e., 2 days) whereas untreated human saliva would be evaluated for long-term storage.
For stability in cholestyramine-treated human saliva, samples were prepared by spiking cholestyramine-treated human saliva with each analyte at the QC-LLOQ, QC-Low, QC-Mid and QC-High levels. The samples were stored in a −20° C. freezer. After 1 day and 2 days of storage, each sample was extracted in replicates of four for analysis.

[2] = Long-term (1 month at −20° C. and −80° C.) stability in untreated human saliva; conditions: for Long-term stability in untreated human saliva: at 80° C. (sic); for % Bias QC-High / Difference from Fresh (%) QC-High / Mean concentration QC-High / Concentration QC-High / Mean at Time Zero, Fresh QCs (Batch 34), QC-High: untreated human saliva; for Concentration QC-High: single determinations
Protocol: For long-term stability in untreated human saliva, samples were prepared by spiking untreated human saliva with each analyte at the QC-Low and QC-High levels. The samples were stored in a −20° C. freezer and in a −80° C. freezer. After 1 month of storage, each sample was extracted in replicates of three for analysis.
A 100-μL aliquot of sample (calibration standards, quality controls, blanks, and stability samples) was transferred into a 96 well plate, according to a pre-defined layout. […] The plates were covered, vortex-mixed and then centrifuged for 5 minutes at 3200 rpm. Supernatants (350 μL each) were transferred into the corresponding wells of a clean 96 well plate and evaporated to dryness under nitrogen in a Turbovap set to 40° C. The dried residue in each well was reconstituted with 75 μL of 50:50 (v:v) methanol:water.

[3] = nominal 0.500 ng/mL, 1 Day frozen (−20° C.)
[4] = nominal 0.500 ng/mL, 2 Days frozen (−20° C.)
[5] = nominal 8.00 ng/mL, 1 Day frozen (−20° C.)
[6] = nominal 8.00 ng/mL, 2 Days frozen (−20° C.)
[7] = nominal 80.0 ng/mL, 1 Day frozen (−20° C.)
[8] = nominal 80.0 ng/mL, 2 Days frozen (−20° C.)
[9] = nominal 80.0 ng/mL, 1 month −20° C. storage
[10] = nominal 80.0 ng/mL, 1 month −80° C. storage
[11] = nominal 5.00 ng/mL, 1 Day frozen (−20° C.)
[12] = nominal 5.00 ng/mL, 2 Days frozen (−20° C.)
[13] = nominal 800 ng/mL, 1 Day frozen (−20° C.)
[14] = nominal 800 ng/mL, 2 Days frozen (−20° C.)
[15] = nominal 800 ng/mL, 1 month −20° C. storage
[16] = nominal 800 ng/mL, 1 month −80° C. storage

## C[C@H](CCC(=O)NCC(=O)O)[C@H]1CC[C@H]2[C@@H]3[C@H](O)C[C@@H]4C[C@H](O)CC[C@]4(C)[C@H]3C[C@H](O)[C@]12C [Glycocholic Acid, Glycocholic acid]
[1]
  Short-term stability in cholestyramine-treated human saliva: up to 2 days
  Stability in Treated Human Saliva: 2 days
[1]; [3]
  % Bias QC-LLOQ: −1.8%
  Mean concentration QC-LLOQ: 0.000491 µg/mL
  Concentration QC-LLOQ: 0.000485 µg/mL and 0.000474 µg/mL and 0.000464 µg/mL and 0.000541 µg/mL
[1]; [4]
  % Bias QC-LLOQ: 8.5%
  Mean concentration QC-LLOQ: 0.000542 µg/mL
  Concentration QC-LLOQ: 0.000464 µg/mL and 0.000541 µg/mL and 0.000485 µg/mL and 0.000474 µg/mL
[1]; [5]
  % Bias QC-Mid: −10.3%
  Mean concentration QC-Mid: 0.00718 µg/mL
  Concentration QC-Mid: 0.0072 µg/mL and 0.00721 µg/mL and 0.00728 µg/mL and 0.00701 µg/mL
[1]; [6]
  % Bias QC-Mid: −8.3%
  Mean concentration QC-Mid: 0.00734 µg/mL
  Concentration QC-Mid: 0.00728 µg/mL and 0.00701 µg/mL and 0.0072 µg/mL and 0.00721 µg/mL
[1]; [7]
  % Bias QC-High: −7.5%
  Mean concentration QC-High: 0.074 µg/mL
  Concentration QC-High: 0.0732 µg/mL and 0.0749 µg/mL and 0.0736 µg/mL and 0.0742 µg/mL
[1]; [8]
  % Bias QC-High: −6.7%
  Mean concentration QC-High: 0.0747 µg/mL
  Concentration QC-High: 0.0736 µg/mL and 0.0742 µg/mL and 0.0732 µg/mL and 0.0749 µg/mL
[2]
  Long-term stability in untreated human saliva: up to 1 month
[2]; at −20° C.
  Stability in Untreated Human Saliva: 1 Month
[2]; at −80° C.
  Stability in Untreated Human Saliva: 1 Month
[2]; [9]
  % Bias QC-High: −5.9%
  Difference from Fresh (%) QC-High: −6.3%
  Mean concentration QC-High: 0.0753 µg/mL
  Concentration QC-High: 0.0728 µg/mL and 0.0756 µg/mL and 0.0775 µg/mL
[2]; [10]
  % Bias QC-High: −4.8%
  Difference from Fresh (%) QC-High: −5.3%
  Mean concentration QC-High: 0.0761 µg/mL
  Concentration QC-High: 0.0784 µg/mL and 0.0759 µg/mL and 0.0741 µg/mL
[2]; nominal 80.0 ng/mL, reference for −20° C. storage
  Mean at Time Zero, Fresh QCs (Batch 34), QC-High: 80.4 ng/mL
[2]; nominal 80.0 ng/mL, reference for −80° C. storage
  Mean at Time Zero, Fresh QCs (Batch 34), QC-High: 80.4 ng/mL

## C[C@H](CCC(=O)O)[C@H]1CC[C@H]2[C@@H]3[C@H](O)C[C@@H]4C[C@H](O)CC[C@]4(C)[C@H]3CC[C@]12C [Chenodeoxycholic Acid, Chenodeoxycholic acid]
[1]
  Short-term stability in cholestyramine-treated human saliva: up to 2 days
  Stability in Treated Human Saliva: 2 days
[1]; [11]
  % Bias QC-LLOQ: 0.4%
  Mean concentration QC-LLOQ: 0.00502 µg/mL
  Concentration QC-LLOQ: 0.00472 µg/mL and 0.0052 µg/mL and 0.00489 µg/mL and 0.00528 µg/mL
[1]; [12]
  % Bias QC-LLOQ: 18.3%
  Mean concentration QC-LLOQ: 0.00592 µg/mL
  Concentration QC-LLOQ: 0.00573 µg/mL and 0.00615 µg/mL and 0.0056 µg/mL and 0.00618 µg/mL
[1]; [7]
  % Bias QC-Mid: 2.5%
  Mean concentration QC-Mid: 0.082 µg/mL
  Concentration QC-Mid: 0.0859 µg/mL and 0.0848 µg/mL and 0.078 µg/mL and 0.0792 µg/mL
[1]; [8]
  % Bias QC-Mid: 4.6%
  Mean concentration QC-Mid: 0.0837 µg/mL
  Concentration QC-Mid: 0.08 µg/mL and 0.0871 µg/mL and 0.0889 µg/mL and 0.0788 µg/mL
[1]; [13]
  % Bias QC-High: −14.7%
  Mean concentration QC-High: 0.683 µg/mL
  Concentration QC-High: 0.644 µg/mL and 0.699 µg/mL and 0.671 µg/mL and 0.717 µg/mL
[1]; [14]
  % Bias QC-High: −9.3%
  Mean concentration QC-High: 0.725 µg/mL
  Concentration QC-High: 0.693 µg/mL and 0.777 µg/mL and 0.725 µg/mL and 0.706 µg/mL
[2]
  Long-term stability in untreated human saliva: up to 1 month
[2]; at −20° C.
  Stability in Untreated Human Saliva: 1 Month
[2]; at −80° C.
  Stability in Untreated Human Saliva: 1 Month
[2]; [15]
  % Bias QC-High: −15.1%
  Difference from Fresh (%) QC-High: −13.5%
  Mean concentration QC-High: 0.679 µg/mL
  Concentration QC-High: 0.693 µg/mL and 0.686 µg/mL and 0.659 µg/mL
[2]; [16]
  % Bias QC-High: −15.7%
  Difference from Fresh (%) QC-High: −14.1%
  Mean concentration QC-High: 0.674 µg/mL
  Concentration QC-High: 0.701 µg/mL and 0.692 µg/mL and 0.63 µg/mL
[2]; nominal 800 ng/mL, reference for −20° C. storage
  Mean at Time Zero, Fresh QCs (Batch 34), QC-High: 785 ng/mL
[2]; nominal 800 ng/mL, reference for −80° C. storage
  Mean at Time Zero, Fresh QCs (Batch 34), QC-High: 785 ng/mL
